For this data set, the system named is Attention Deficit Hyperactivity Disorder (ADHD)-combined type, and Tic Disorder. Briefly: Case report: cognition, attention and tics after OMAX3 augmentation. The settings on record: for treatment response of tics: past use. The class given is in vivo, human. The protocol: […] […] Past medication trials included: Strattera (atomoextine), Adderall, Adderall XR, methylphenidate, Tenex (guanfacine), and Concerta. His most recent medication treatment was with Concerta 54 mg per day.
R's Tic Disorder was comprised of both vocal and motor tics in the form of random verbalizations or screeching sounds, as well as either a facial and neck twitch.
The patient was treated with OMAX3, 2 capsules per day (1125 mg EPA, 275 mg DHA, 1500 mg Total Omega-3 fatty acids) for the purpose of enhancing their attention and cognitive function.

Turning to `COC(=O)C(c1ccccc1)C1CCCCN1` (stereo not shown) [Concerta], the inattention symptoms result (patient's report at baseline, Concerta 54 mg per day, before OMAX3) is recorded as “sufficiently improved”.
Turning to `N=C(N)NC(=O)Cc1c(Cl)cccc1Cl` [Tenex, guanfacine], under “past use for tics, patient history”, the tolerability result is reported as “poor tolerability”. In addition, the “treatment response of tics” value (patient history) was “only a partial treatment response”.
On to `Cc1nc2n(c(=O)c1CCN1CCC(c3noc4cc(F)ccc34)CC1)CCCC2` [Risperdal, risperidone], for which the “treatment response of tics” value (patient history) is listed as “only a partial treatment response”.

The record behind these values is US20130213851A1, “OMEGA 3 FATTY ACID FORMULATIONS” (CENESTRA LLC., priority 2005, published 2013).
